Measured values: the supplement of paper PMC10307832

Columns and labels:
Experiment in all cases: relative viability (nuclei count vs DMSO), 5 days (fraction); higher = more cells survive
Zosuquidar = compound: O[C@@H](COc1cccc2ncccc12)CN1CCN([C@@H]2c3ccccc3[C@@H]3[C@H](c4ccccc42)C3(F)F)CC1 [Zosuquidar]
In short: (§1)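 Lung cancer cell lines in 1536-well plates were exposed by pinning to five library-drug doses (not always all listed) √10 apart, following an overnight hold at 37 °C. MetaXpress counted Hoechst-stained nuclei from 4× images taken after 5 days without medium change. Viability is the median ratio of treated-well to vehicle-well nuclei across plates. Plates required control CV below 25% and at least one doubling.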

Kobe2602 = compound: C1=CC(=CC=C1NC(=S)NNC2=C(C=C(C=C2[N+](=O)[O-])C(F)(F)F)[N+](=O)[O-])F [Kobe2602]
In short: as §1

Cabozantinib = compound: COc1cc2nccc(Oc3ccc(NC(=O)C4(C(=O)Nc5ccc(F)cc5)CC4)cc3)c2cc1OC [Cabozantinib]
In short: as §1

Row | Cell Line | relative viability (Zosuquidar; 0.01 µM) | relative viability (Zosuquidar; 0.03162 µM) | relative viability (Zosuquidar; 0.1 µM) | relative viability (Zosuquidar; 0.3162 µM) | relative viability (Zosuquidar; 1 µM) | relative viability (Kobe2602; 0.2 µM) | relative viability (Kobe2602; 0.6325 µM) | relative viability (Kobe2602; 2 µM) | relative viability (Kobe2602; 6.325 µM) | relative viability (Kobe2602; 20 µM) | relative viability (Cabozantinib; 0.02 µM) | relative viability (Cabozantinib; 0.06325 µM) | relative viability (Cabozantinib; 0.2 µM) | relative viability (Cabozantinib; 0.6325 µM) | relative viability (Cabozantinib; 2 µM)
1 | LC-2-ad | 0.919 | 1.07 | 0.923 | 1.13 | 0.995 | 0.999 | 1.02 | 0.954 | 0.951 | 1.08 | 0.838 | 1.13 | 0.946 | 0.878 | 0.704
2 | LCLC-97TM1 | 0.9 | 1.12 |  | 1.02 | 0.939 | 1.07 | 1.07 | 0.928 | 0.798 | 1 |  | 1.02 | 1.06 | 0.999 | 1.02
3 | LCLC-103H | 0.911 | 0.973 | 0.752 | 1.02 | 1.06 | 1.01 | 1.01 | 0.987 | 0.992 | 0.981 | 0.824 | 1.16 | 1.02 | 1.05 | 0.953
4 | LK-2 | 0.997 | 1.03 | 0.934 | 1.11 | 1.01 | 1.14 | 1.12 | 0.974 | 0.887 | 1.19 | 0.764 | 1.26 | 0.924 | 0.927 | 0.926
5 | LOU-NH91 | 0.888 | 0.953 | 0.775 | 1.01 | 0.922 | 0.993 | 1.05 | 0.912 | 0.999 | 1.04 | 0.919 | 1.13 | 0.885 | 0.926 | 0.975
6 | LU99A | 0.984 | 0.833 | 0.971 | 1.04 | 0.912 | 0.908 | 0.998 | 0.948 | 0.939 | 1.01 | 0.889 | 1.03 | 0.979 | 0.901 | 0.822
7 | LXF-289 | 1.01 | 1.02 | 1.01 | 1.02 | 0.97 | 1.03 | 1.04 | 0.99 | 0.985 | 0.991 | 1.04 | 1.02 | 0.974 | 1.05 | 1.02
8 | NCI-H23 | 0.99 | 0.992 | 0.873 | 1.18 | 0.976 | 0.97 | 1.26 | 0.944 | 1.12 | 1.1 |  | 1.33 | 0.99 | 0.925 | 0.874
9 | NCI-H322M | 0.907 | 1.07 | 0.667 | 0.924 | 0.916 | 0.97 | 1.07 | 1.03 | 0.984 | 1.08 | 0.874 | 1.17 | 0.694 | 0.983 | 0.952
10 | NCI-H358 | 0.959 | 0.914 | 0.871 | 0.878 | 0.937 | 0.993 | 1.03 | 0.862 | 0.828 | 0.97 | 0.936 | 1.02 | 0.833 | 0.981 | 0.813
11 | NCI-H441 | 1.14 | 0.881 | 0.829 | 1.06 | 1.17 | 0.973 | 1.2 | 0.917 | 1.04 | 1.16 | 0.738 | 1.23 | 0.96 | 0.793 | 0.879
12 | NCI-H460 | 0.993 | 0.964 | 0.969 | 1.02 | 0.974 | 1.03 | 0.955 | 0.986 | 1.04 | 0.963 | 1.05 | 1.06 | 1.05 | 0.976 | 1.03
13 | NCI-H520 | 0.986 | 1.04 |  | 1.08 | 1.05 | 1.01 | 1.09 | 0.966 | 0.936 | 0.957 | 1.05 | 0.959 | 0.962 | 0.953 | 0.951
14 | NCI-H522 | 1.01 | 0.809 | 0.955 | 1.06 | 0.907 | 1.08 | 1.11 | 0.997 | 0.895 | 0.979 | 0.863 | 0.98 | 0.897 | 0.98 | 1.15
15 | NCI-H596 | 1.06 | 0.806 | 1.04 | 1.14 | 1.04 | 1.02 | 0.927 | 1.01 | 0.92 | 1.11 | 1.1 | 1.17 | 1.06 | 1.01 | 0.983
16 | NCI-H647 | 0.908 | 0.951 | 0.918 | 1.13 | 0.884 | 0.938 | 1.09 | 0.936 | 0.91 | 0.948 | 0.994 | 1.14 | 0.986 | 0.92 | 0.881
17 | NCI-H650 | 1.02 | 0.836 | 0.807 | 1.12 | 0.851 | 0.913 | 1.11 | 0.885 | 0.986 | 0.905 | 0.745 | 0.966 | 1.12 | 0.86 | 0.899
18 | NCI-H661 | 0.945 | 0.976 | 0.91 | 1.03 | 0.982 | 1 | 0.952 | 0.983 | 0.991 | 1.02 | 0.986 | 1.03 | 1.01 | 1.02 | 1.06
19 | NCI-H727 | 0.971 | 1.06 | 0.8 | 1.13 | 1.01 | 1.07 | 0.952 | 0.878 | 0.85 | 0.938 | 0.852 | 1.05 | 0.808 | 0.912 | 0.961
20 | NCI-H838 | 0.972 | 0.836 | 0.9 | 1.04 | 1.01 | 0.932 | 1.03 | 0.937 | 0.955 | 0.96 | 0.93 | 1 | 0.966 | 0.891 | 0.854
21 | NCI-H1299 | 1.02 | 0.989 | 1.04 | 1.01 | 1 | 0.977 | 1.06 | 1.02 | 1.04 | 0.994 | 1.03 | 1.08 | 1.03 | 1.05 | 1.08
22 | NCI-H1355 | 0.99 | 0.967 | 0.843 | 1.06 | 0.973 | 0.914 | 1.01 | 0.911 | 0.965 | 0.959 | 0.954 | 1.11 | 0.977 | 0.96 | 0.961
23 | NCI-H1395 | 0.914 | 0.869 | 0.717 | 1.18 | 0.891 | 0.978 | 1.22 | 0.893 | 1.06 | 0.976 | 0.797 | 1.23 | 1.01 | 0.938 | 0.815
